Data taken from US7148204B2, “Antisense modulation of bcl-x expression” (Isis Pharmaceuticala, Inc., priority 1998, dated 2006).

Legend:
bcl-2 protein = assay: Immunoblot of bcl-2 protein in CEM cells; assay type: cell-based, human; settings: even at the highest concentration
Experimental: Postnuclear detergent lysates were prepared as described by Reed et al. (Cancer Res., 1991, 51, 6529–6538), and the protein concentration was determined using a Bradford method protein assay kit (Bio-Rad, Hercules, Calif.). Protein (20 μg) was loaded in each lane, followed by electrophoresis on a 12% sodium dodecyl sulfate-polyacrylamide gel, followed by immunoblotting (Winston et al., 1993). The primary antibody was a 0.4 μg/ml dilution of the mouse monoclonal anti-human bcl-2 (clone 124, Dako, Carpinteria, Calif.), a 4.0 μg/ml dilution of the rabbit polyclonal anti-human bcl-xs/l (Dako), or a 0.3 μg/ml dilution of rabbit polyclonal anti-human Bax (N-20, Santa Cruz Biotechnology, Santa Cruz, Calif.). For development and STORM fluorescent imaging, the secondary antibody was peroxidase-conjugated sheep anti-mouse or donkey anti-rabbit (Amersham, Little Chalfort, UK). Chemiluminescence imaging and quantification were preformed using the STORM instrument and ImageQuant software (Molecular Dynamics, Sunnyvale, Calif.).

CEM cells = assay: Combination index (median-effect) of bcl-x antisense with chemotherapeutic drugs in CEM cells; assay type: cell-based, human
Description: To determine if synergy existed between the bcl-x and the chemotherapeutic drugs dexamethasone or doxorubicin, the median-effect principle of Chou (“The median-effect principle and the combination index for quantification of synergism and antagonism. In Synergism and Antagonism in Chemotherapy, T.-C. Chou and D. Rideout, eds., Academic Press, New York, pp. 61–102) was used to determine dose-effect parameters for the drugs individually and for the combinations of bcl-x antisense plus dexamethasone or bcl-x antisense plus doxorubicin. This method analyzes the shape of the drug dose-response curves for each drug, combination of drugs and quantitates synergism/antagonism at different concentrations. Median effect computer software (CalcuSyn for Windows, Biosoft, Ferguson, Mo.) was used to generate the combination index (CI), where a CI value of <1, =1, >1 indicates synergism (i.e., the effect of drug combination is greater than anticipated from the additive effect of the individual agents), additive effect, and antagonism, respectively.
Treatment of CEM cells with bcl-x antisense oligonucleotide makes the cells more sensitive to killing by doxorubicin or dexamethasone (FIGS. 9A–B). These, or similar drugs, are used frequently for acute lymphocytic leukemia treatment. The use of any of these therapeutic agents in combination with one or more antisense oligonucleotides to bcl-x is within the scope of the present invention. For these experiments, the CEM cells were electroporated with either the bcl-x antisense or control oligonucleotides, cultured for one day, then treated with the indicated concentrations of drug. […] A CI of <0.3 is classified as a strong degree of synergism, and 0.3 to 0.7 is classified as synergism. […] For the doses tested of doxorubicin, the CI ranged from 0.7 to 1.3.

human bcl-x mRNA = assay: Northern blot analysis of bcl-x mRNA levels in A549 cells; assay type: cell-based
Experimental: Eighteen hours after antisense treatment, cell monolayers were washed twice with cold PBS and lysed in 1 mL RNAZOL™ (TEL-TEST “B” Inc., Friendswood, Tex.). Total RNA was prepared following manufacturer's recommended protocols. Twenty micrograms of total RNA was fractionated by electrophoresis through 1.2% agarose gels containing 1.1% formaldehyde using a MOPS buffer system (AMRESCO, Inc. Solon, Ohio). RNA was transferred from the gel to HYBOND™-N+ nylon membranes (Amersham Pharmacia Biotech, Piscataway, N.J.) by overnight capillary transfer using a Northern/Southern Transfer buffer system (TEL-TEST “B” Inc., Friendswood, Tex.). RNA transfer was confirmed by UV visualization. Membranes were fixed by UV cross-linking using a STRATALINKER™ UV Crosslinker 2400 (Stratagene, Inc, La Jolla, Calif.).
Membranes were probed using QUICKHYB™ hybridization solution (Stratagene, La Jolla, Calif.) using manufacturer's recommendations for stringent conditions with an 822-base pair bcl-x specific probe prepared by PCR from bases 33–855 of human bcl-xl sequence (Boise et al., 1993, Cell 74:597–608; GenBank accession no. L20121). To normalize for variations in loading and transfer efficiency membranes were stripped and probed for glyceraldehyde-3-phosphate dehydrogenase (GAPDH) RNA (Clontech, Palo Alto, Calif.). Hybridized membranes were visualized and quantitated using a PHOSPHORIMAGER™ and IMAGEQUANT™ Software V3.3 (Molecular Dynamics, Sunnyvale, Calif.). Data was normalized to GAPDH levels in untreated controls.
Oligonucleotides were tested by Northern blot analysis as described in Example 14. Oligonucleotides were tested in A549 cells at a concentration of 400 nM. The results are Table 2:
Oligonucleotides were tested by Northern blot analysis as described in Example 14. Chimeric oligonucleotides were in A549 cells at a concentration of 200 nM. Where present, “N.D.” indicates “not determined”.

Sequence: TCCCGGTTGCTCTGAGACAT (5-10-5 2'-MOE gapmer, phosphorothioate, further chemistry not given here) [ISIS 15999]
- bcl-2 protein levels (bcl-2 protein): did not decrease
- combination index (CI) (CEM cells; with dexamethasone, three highest doses): < 0.3
- combination index (CI) (CEM cells; with dexamethasone, two lower doses): 0.3 to 0.4
- combination index (CI) (CEM cells; with doxorubicin, doses tested): 0.7 to 1.3
- reduction of bcl-x mRNA levels (human bcl-x mRNA; 25 nM (lowest dose tested)): approximately 70%
- inhibition of bcl-x mRNA (human bcl-x mRNA; 50 nM to 200 nM): greater than 90%
- bcl-x mRNA at the highest dose (human bcl-x mRNA; 200 nM): nearly complete ablation
- IC50 (human bcl-x mRNA; dose-response, Northern blot): < 25 nM
